Legend:
Triticum aestivum [1] = experiment: Effect on photosynthetic activity in Triticum aestivum (wheat) shoots assessed as dark respiration rate measured by CO2 production compound administered at rate of 14 mf/flat measured 72 hr post treatment (reference value: -1.07 umol/m2/s); format: functional
Triticum aestivum [2] = experiment: Effect on antioxidant enzyme system in Triticum aestivum (wheat) shoots assessed as glutathione S-transferase activity per mg protein compound administered at rate of 14 mf/flat measured 24 hr post treatment (reference value: 2.7 nmol/s per mg protein); format: functional
Lolium multiflorum [3] = experiment: Effect on antioxidant enzyme system in Lolium multiflorum (Italian ryegrass) shoots assessed as dehydroascorbate reductase activity per mg protein compound administered at rate of 14 mf/flat measured 48 hr post treatment (reference value: 3.6 nmol/s per mg protein); format: functional
Triticum aestivum [4] = experiment: Effect on photosynthetic activity in Triticum aestivum (wheat) shoots assessed as dark respiration rate measured by CO2 production compound administered at rate of 14 mf/flat measured 48 hr post treatment (reference value: -1.43 umol/m2/s); format: functional
Lolium multiflorum [5] = experiment: Effect on antioxidant enzyme system in Lolium multiflorum (Italian ryegrass) shoots assessed as catalase activity per mg protein compound administered at rate of 14 mf/flat measured 48 hr post treatment (reference value: 0.10 nmol/s per mg protein); format: functional
Lolium multiflorum [6] = experiment: Effect on photosynthetic activity in Lolium multiflorum (Italian ryegrass) shoots assessed as leaf net photosynthesis rate measured by CO2 production compound administered at rate of 14 mf/flat measured 48 hr post treatment (reference value: 4.89 umol/m2/s); format: functional
Lolium multiflorum [7] = experiment: Increase in antioxidant enzyme system in Lolium multiflorum (Italian ryegrass) shoots assessed as increase in dehydroascorbate reductase activity compound administered at rate of 14 mf/flat measured 48 hr post treatment; format: functional
Triticum aestivum [8] = experiment: Effect on antioxidant enzyme system in Triticum aestivum (wheat) shoots assessed as glutathione reductase activity per mg protein compound administered at rate of 14 mf/flat measured 72 hr post treatment (reference value: 1.1 nmol/s per mg protein); format: functional
Lolium multiflorum [9] = experiment: Increase in antioxidant enzyme system in Lolium multiflorum (Italian ryegrass) shoots assessed as increase in ascorbate peroxidase activity compound administered at rate of 14 mf/flat measured 72 hr post treatment; format: functional
Lolium multiflorum [10] = experiment: Effect on antioxidant enzyme system in Lolium multiflorum (Italian ryegrass) shoots assessed as catalase activity per mg protein compound administered at rate of 14 mf/flat measured 24 hr post treatment (reference value: 0.13 nmol/s per mg protein); format: functional
Lolium multiflorum [11] = experiment: Effect on photosynthetic activity in Lolium multiflorum (Italian ryegrass) shoots assessed as dark respiration rate measured by CO2 production compound administered at rate of 14 mf/flat measured 24 hr post treatment (reference value: -1.51 umol/m2/s); format: functional
Lolium multiflorum [12] = experiment: Increase in antioxidant enzyme system in Lolium multiflorum (Italian ryegrass) shoots assessed as increase in ascorbate peroxidase activity compound administered at rate of 14 mf/flat measured 48 hr post treatment; format: functional
Lolium multiflorum [13] = experiment: Increase in MDA content in Lolium multiflorum (Italian ryegrass) shoots compound administered at rate of 14 mf/flat measured 24 hr post treatment; format: functional
Shoot = experiment: Drug level in Triticum aestivum (wheat) shoots compound administered at rate of 14 mf/flat measured 144 hr post treatment by HPLC; format: ADME
Triticum aestivum [14] = experiment: Reduction in glutathione S-transferase activity in Triticum aestivum (wheat) shoots compound administered at rate of 14 mf/flat measured 48 hr post treatment; format: functional; set-up: scale not given: the % may be the effect or the level left

| SMILES | Activity (Triticum aestivum [1]) [micromol/m2/s] | Activity (Triticum aestivum [2]) [nmol/s/mg protein] | Activity (Lolium multiflorum [3]) [nmol/s/mg protein] | Activity (Triticum aestivum [4]) [micromol/m2/s] | Activity (Lolium multiflorum [5]) [nmol/s/mg protein] | Activity (Lolium multiflorum [6]) [micromol/m2/s] | Activity (Lolium multiflorum [7]) [%] | Activity (Triticum aestivum [8]) [nmol/s/mg protein] | Activity (Lolium multiflorum [9]) [%] | Activity (Lolium multiflorum [10]) [nmol/s] | Activity (Lolium multiflorum [11]) [micromol/m2/s] | Activity (Lolium multiflorum [12]) [%] | Activity (Lolium multiflorum [13]) [%] | Drug uptake (Shoot) [ppm] | Activity (Triticum aestivum [14]) [%] |
| --- | --- | --- | --- | --- | --- | --- | --- | --- | --- | --- | --- | --- | --- | --- | --- |
| O=[N+]([O-])c1ccc(Oc2ccc(C(F)(F)F)cc2[N+](=O)[O-])cc1 [FLUORODIFEN] | -0.94 | 2.3 | 4.3 | -0.77 | 0.11 | 4.42 | 19 | 1 | 21 | 0.11 | -1.42 | 35 |  |  |  |
| CCNc1nc(Cl)nc(NC(C)C)n1 [ATRAZINE] |  | 1.7 | 3.5 |  | 0.1 | -1.04 |  | 1 |  | 0.13 | -1.32 | 26 | 25 | 0.35 | 26 |

Source: ChEMBL document CHEMBL3045349, “A comparative study on the interference of two herbicides in wheat and italian ryegrass and on their antioxidant activities and detoxification rates” (J Agric Food Chem, 2011)
